Among the data in ChEMBL document CHEMBL5233253, “β-Lactams as promising anticancer agents: Molecular hybrids, structure activity relationships and potential targets” (Eur J Med Chem, 2020) are IC50 and EC50 values, retold here.

Structures are written as SMILES. A value given as a limit tells only on which side of the number the result lay.

The target of one assay is Heat shock protein HSP90 (Homo sapiens, UniProt P07900+P08238). Description: Inhibition of HSP90 (unknown origin). The class given is protein assay.
For the next assay, the target named is Tubulin. Put plainly: Inhibition of tubulin (unknown origin) polymerization incubated for 5 mins by spectrophotometer analysis. The class given is protein-complex assay, Homo sapiens.
Another assay deals with MCF7. Put plainly: Cytotoxicity against human MCF7 cells assessed as inhibition of cell growth by MTT assay. In kind it is functional, cell-based. For orientation: Tetrazolium assays rely on reduction of a dye to a coloured formazan, in cell work by metabolically active cells.
The next assay relates to A549. Description: Cytotoxicity against human A549 cells assessed as inhibition of cell growth by MTT assay. The class given is functional, cell-based.
The subject of another assay is HEK293. Description: Antiproliferative activity against human HEK293 cells assessed as inhibition of cell growth measured after 48 hrs by MTT assay. The class given is functional, cell-based. As to conditions: HEK293, 48 h.
Assay [1] is described as follows: Inhibition of Klebsiella pneumoniae beta Metallo-beta-lactamase IMP-28.
For a further assay, the system named is L1210. Description: Cytotoxicity against mouse L1210 cells assessed as reduction in cell viability. In kind it is functional, cell-based.
In the next assay the test system is CCRF-CEM. Put plainly: Cytotoxicity against human CEM cells assessed reduction in cell viability. The class given is functional, cell-based.
Another assay relates to HT-1080. Put plainly: Cytotoxicity against human HT-1080 cells assessed reduction in cell viability. In kind it is functional, cell-based.
Assay [2] is described as follows: Anti-keratosis activity in vitamin-A-deficient hamster trachea in presence of beta-lactamase. In kind it is functional, tissue-based, Cricetulus griseus.

As usually defined, the IC50 is the point on the concentration scale where inhibition reaches its midpoint. Regarding `CCc1cc([C@@H]2CC(=O)N2c2ccc3c(c2)OCCO3)c(O)cc1O`, the IC50 on Heat shock protein HSP90 stood at 5.6 µM.

For `COc1cc(N2C(=O)[C@H](c3cccs3)[C@H]2c2cccc(N=[N+]=[N-])c2)cc(OC)c1OC`, 2.26 µM corresponded to half-maximal inhibition against Tubulin (IC50).

As for `CC(O)C1C(=O)NC1OC(=O)/C=C/c1ccc(N)cc1` (centres undefined), the concentration for half-maximal inhibition (IC50) in the assay on MCF7 and in the assay with A549 was 1.59 µM throughout.

Regarding `C[C@H](CCC(=O)OCc1cn([C@@H]2C(=O)N(CCN3C(=O)[C@@H](n4cc(COC(=O)CC[C@@H](C)[C@H]5CC[C@H]6[C@@H]7[C@H](O)C[C@@H]8C[C@H](O)CC[C@]8(C)[C@H]7C[C@H](O)[C@]56C)nn4)[C@H]3c3ccccc3)[C@@H]2c2ccccc2)nn1)[C@H]1CC[C@H]2[C@@H]3CC[C@@H]4C[C@H](O)CC[C@]4(C)[C@H]3C[C@H](O)[C@]12C`, the IC50 in the assay with HEK293 is 10 µM.

`O=C(OCc1ccccc1)[C@H]1[C@@H](Cc2ccc(O)cc2)C(=O)N1C(=O)c1ccccc1` yielded an IC50 in assay [1] of 0.34 µM.

As to `Cc1cn(CCCN2C(=O)C(OCc3ccccc3)C2c2ccc(Br)cc2)c(=O)n(CCCN2C(=O)C(OCc3ccccc3)C2c2ccc(Br)cc2)c1=O` (centres undefined), the IC50 with L1210 was determined as 4.1 µM; in the assay on CCRF-CEM, 3.4 µM.

For the compound `CC(O)C1C(=O)NC1OC(=O)/C=C/c1ccc(Cl)cc1` (centres undefined), the 50% inhibitory concentration (IC50) in the assay with MCF7 and in the assay on A549 was 1.59 µM throughout.

As for `O=C(O)c1ccc(COC(=O)[C@H]2[C@@H](Cc3ccccc3)C(=O)N2C(=O)Cc2cccc(C(=O)OCc3ccccc3)c2)cc1`, half-maximal inhibition in [1] (IC50) required 0.34 µM.

`O=C(OCc1ccccc1)c1cccc(CC(=O)N2C(=O)[C@H](Cc3ccccc3)[C@@H]2C(=O)OCc2ccccc2)c1` returned a half-inhibitory concentration (IC50) in assay [1] of 0.34 µM.

On to `COc1ccc(/C=C/C(=O)OC2NC(=O)C2C(C)O)cc1` (centres undefined), for which the half-maximal inhibitory concentration (IC50) in the assay with MCF7 and in the assay with A549 was 1.59 µM each time.

For `C[C@H](CCC(=O)NCc1cn([C@@H]2C(=O)N(CCN3C(=O)[C@@H](n4cc(CNC(=O)CC[C@@H](C)[C@H]5CC[C@H]6[C@@H]7CC[C@@H]8C[C@H](O)CC[C@]8(C)[C@H]7C[C@H](O)[C@]56C)nn4)[C@H]3c3ccccc3)[C@@H]2c2ccccc2)nn1)[C@H]1CC[C@H]2[C@@H]3CC[C@@H]4C[C@H](O)CC[C@]4(C)[C@H]3C[C@H](O)[C@]12C`, the 50% inhibitory concentration (IC50) in the assay on HEK293 was determined as 500 µM.

As for `C=C(C)[C@H](C(=O)OC(c1ccccc1)c1ccccc1)N1C(=O)/C(=C/C(=O)OC(C)(C)C)[C@H]1SSc1nc2ccccc2s1`, the concentration for half-maximal inhibition (IC50) in the assay with HT-1080 is 0.4 µM.

`O=C(OCc1ccccc1)c1cccc(CC(=O)N2C(=O)[C@H](Cc3ccc(O)cc3)[C@@H]2C(=O)OCc2ccccc2)c1` had a half-maximal inhibitory concentration (IC50) in assay [1] of 0.34 µM.

Consider `CC(O)C1C(=O)NC1OC(=O)/C=C/c1ccccc1` (centres undefined), for which the 50% inhibitory concentration (IC50) with MCF7 and in the assay with A549 was 1.59 µM throughout.

Turning to `CC(O)C1C(=O)NC1OC(=O)/C=C/c1ccc(Br)cc1` (centres undefined), the concentration for half-maximal inhibition (IC50) in the assay with MCF7 and in the assay with A549 was 1.59 µM in each case.

One may read the EC50 as the concentration at which the effect is half-maximal. As for `CC1=C(/C=C/C(C)=C/C=C/C(C)=C/C(=O)OCC2=C(C(=O)O)N3C(=O)[C@@H](NC(=O)COc4ccccc4)[C@H]3[S+]([O-])C2)C(C)(C)CCC1` (some centres undefined), the concentration giving a half-maximal response (EC50) in assay [2] was 0.0391 nM.

`C[C@H](CCC(=O)NCc1cn([C@@H]2C(=O)N(CCN3C(=O)[C@@H](n4cc(CNC(=O)CC[C@@H](C)[C@H]5CC[C@H]6[C@@H]7[C@H](O)C[C@@H]8C[C@H](O)CC[C@]8(C)[C@H]7C[C@H](O)[C@]56C)nn4)[C@H]3c3ccccc3)[C@@H]2c2ccccc2)nn1)[C@H]1CC[C@H]2[C@@H]3CC[C@@H]4C[C@H](O)CC[C@]4(C)[C@H]3C[C@H](O)[C@]12C`: the IC50 with HEK293 turned out to be 100 µM.

As to `C[C@H](CCC(=O)OCc1cn([C@@H]2C(=O)N(CCN3C(=O)[C@@H](n4cc(COC(=O)CC[C@@H](C)[C@H]5CC[C@H]6[C@@H]7CC[C@@H]8C[C@H](O)CC[C@]8(C)[C@H]7C[C@H](O)[C@]56C)nn4)[C@H]3c3ccccc3)[C@@H]2c2ccccc2)nn1)[C@H]1CC[C@H]2[C@@H]3CC[C@@H]4C[C@H](O)CC[C@]4(C)[C@H]3C[C@H](O)[C@]12C`, the IC50 in the assay with HEK293 is more than 1000 µM.
